Here are results for 1 molecule from PMC9698483, “Berbamine Reduces Chloroquine-Induced Itch in Mice through Inhibition of MrgprX1” (International Journal of Molecular Sciences, 2022).

Assay type in all cases: cell-based
Assay [1] deals with T1, MrgprC11 (Mus musculus, UniProt Q8CIP3).
T1 construct: expressed in transfected cells; host or cells: HEK293T
T1 sequence (Q8CIP3 1-322): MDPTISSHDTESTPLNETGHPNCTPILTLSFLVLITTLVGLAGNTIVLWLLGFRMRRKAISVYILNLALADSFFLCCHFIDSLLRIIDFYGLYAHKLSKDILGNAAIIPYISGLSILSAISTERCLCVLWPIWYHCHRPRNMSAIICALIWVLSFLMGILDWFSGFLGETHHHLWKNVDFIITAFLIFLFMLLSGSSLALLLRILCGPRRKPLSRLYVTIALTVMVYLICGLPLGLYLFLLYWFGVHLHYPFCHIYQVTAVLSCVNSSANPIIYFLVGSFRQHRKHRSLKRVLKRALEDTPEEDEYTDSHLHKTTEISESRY
The experiment in a line: Activation of MrgprC11 in MrgprC11-expressing HEK293T cells (calcium). As for the experimental part:
(§1) To investigate the effect of berbamine on other pruritogenic GPCRs, we observed the effect of berbamine on histamine H1 receptor (H1R), histamine H4 receptor (H4R), MrgprC11, MrgprX4, PAR2, and TGR5.
(§2) Figure 3 Effects of berbamine on the activity of other pruritogenic GPCRs: (A,B) Effect of berbamine on histamine 1 receptor (H1R) and histamine 4 receptor (H4R). H1R- and H4R-expressing HEK293T cells were pretreated with 30 μM BBM for 10 min prior to 100 μM histamine treatment. […] (C) Effect of berbamine on PAR2. HT29 cells were pretreated with BBM for 10 min prior to 30 μM PAR2-AP treatment. […] (D) Effect of berbamine on MrgprC11. MrgprC11-expressing HEK293T cells were pretreated with BBM for 10 min prior to 100 μM […] treatment. (E) Effect of berbamine on MrgprX4. MrgprX4-expressing HEK293T cells were pretreated with BBM for 10 min prior to 80 μM DCA treatment. (F) Effect of berbamine on TGR5. TGR5 activity was measured using a YFP fluorescence quenching assay. CHO-K1 cells coexpressing TGR5 and a halide sensor YFP were pretreated with BBM and 80 μM DCA for 10 min prior to I^- treatment. Results were summarized as means ± S.E. (n = 6). NTC, nontransfected cells.
(§3) Intracellular calcium levels were measured using a Fluo-4 NW calcium assay kit (Invitrogen, Carlsbad, CA) as per the manufacturer’s protocol in HEK293T and HT29 cells. […]

Assay [2] deals with T2, PAR2 (Homo sapiens, UniProt P55085).
T2 construct: endogenous in cells; host or cells: HT29
T2 sequence (P55085 26-397): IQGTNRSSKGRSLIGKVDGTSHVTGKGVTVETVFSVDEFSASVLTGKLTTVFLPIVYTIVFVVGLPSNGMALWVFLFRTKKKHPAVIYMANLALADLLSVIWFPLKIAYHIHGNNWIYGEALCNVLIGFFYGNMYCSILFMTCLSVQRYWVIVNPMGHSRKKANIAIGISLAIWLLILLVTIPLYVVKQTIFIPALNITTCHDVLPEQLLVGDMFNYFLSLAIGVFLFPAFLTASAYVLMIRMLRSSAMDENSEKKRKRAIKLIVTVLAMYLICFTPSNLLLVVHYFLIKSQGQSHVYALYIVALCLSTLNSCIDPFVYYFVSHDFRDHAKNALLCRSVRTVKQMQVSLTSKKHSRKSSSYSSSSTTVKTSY
Description: PAR2-AP-induced activation of PAR2 in HT29 cells (calcium). The note with it: 30 μM compound, 10 min prior to 30 μM PAR2-AP. The procedure:
as §1, §2, §3

Assay [3] concerns the target T3, MrgprX4 (Homo sapiens, UniProt Q96LA9).
T3 construct: expressed in transfected cells; host or cells: HEK293T
The experiment in a line: DCA-induced activation of MrgprX4 in MrgprX4-expressing HEK293T cells (calcium). The settings on record: 30 μM, 10 min prior to 80 μM DCA. As for the experimental part: as §1, §2, §3

The target in assay [4] is T4, MrgprA3 (Mus musculus, UniProt Q91WW3).
T4 construct: expressed in transfected cells; host or cells: HEK293T
T4 sequence (Q91WW3 1-302): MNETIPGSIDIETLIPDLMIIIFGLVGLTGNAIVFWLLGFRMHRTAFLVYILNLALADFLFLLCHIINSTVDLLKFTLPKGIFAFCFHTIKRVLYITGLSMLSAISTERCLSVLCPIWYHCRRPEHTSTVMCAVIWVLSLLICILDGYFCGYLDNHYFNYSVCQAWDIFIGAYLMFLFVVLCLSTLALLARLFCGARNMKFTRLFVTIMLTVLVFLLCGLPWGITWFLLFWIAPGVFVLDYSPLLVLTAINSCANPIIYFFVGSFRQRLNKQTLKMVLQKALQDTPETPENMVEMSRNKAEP
Description: Intracellular calcium measurement in HEK293T cells expressing mouse MrgprA3. The note with it: pretreated 10 min prior to 300 μM CQ; read-out: IC50 of inhibition of CQ-induced MrgprA3 activation. The procedure:
MRGPRA3 and MRGPRC11 are mouse orthologs of human MRGPRX1, and MrgprA3 is also activated by CQ, resulting in CQ-induced pruritus. To investigate the inhibitory effect of berbamine on MrgprA3, we established HEK293T cells overexpressing MrgprA3. […] We further investigated whether berbamine inhibited CQ-induced ERK1/2 phosphorylation in HEK-MrgprA3 cells. Strong and significant ERK1/2 phosphorylation was observed following CQ application, and ERK1/2 phosphorylation peaked 5 min after CQ treatment (Figure 6A,B).
Figure 5 Effect of berbamine on CQ-induced activation of MrgprA3: (A) Intracellular calcium levels were measured in HEK293T cells expressing mouse MrgprA3. Cells were treated with indicated concentrations of CQ. (B) Summary of dose–response (mean ± S.E., n = 6). (C) Cells were pretreated with indicated concentrations of berbamine for 10 min prior to 300 μM CQ treatment. (D) Summary of dose-response (mean ± S.E., n = 6). (E) Representative traces of intracellular calcium responses to BAM8−22 in HEK293T cells expressing MrgprC11. […]
Intracellular calcium levels were measured using a Fluo-4 NW calcium assay kit (Invitrogen, Carlsbad, CA) as per the manufacturer’s protocol in HEK293T and HT29 cells. […] After 1 h of incubation, Fluo-4 fluorescence was recorded with a FLUOstar Omega microplate reader equipped with syringe pumps and custom Fluo-4 excitation/emission filters (485/538 nm). […]
Background: Calcium assays in cells follow changes in intracellular calcium, usually with a dye or a luminescent sensor.

T3 sequence (Q96LA9 whole entry): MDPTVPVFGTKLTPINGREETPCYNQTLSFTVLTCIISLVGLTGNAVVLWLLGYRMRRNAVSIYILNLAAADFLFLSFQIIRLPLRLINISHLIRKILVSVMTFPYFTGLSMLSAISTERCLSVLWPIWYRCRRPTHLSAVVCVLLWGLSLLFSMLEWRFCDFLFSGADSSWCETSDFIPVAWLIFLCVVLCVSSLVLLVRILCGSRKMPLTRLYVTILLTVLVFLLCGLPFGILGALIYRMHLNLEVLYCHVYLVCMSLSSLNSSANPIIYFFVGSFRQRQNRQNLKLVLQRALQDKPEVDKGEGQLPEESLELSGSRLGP

In general, IC50 refers to the concentration that inhibits the measured activity by half. Turning to `COc1cc2c3cc1Oc1c(OC)c(OC)cc4c1[C@@H](Cc1ccc(O)c(c1)Oc1ccc(cc1)C[C@@H]3N(C)CC2)N(C)CC4` [berbamine], the “effect on PAR2-AP-induced activation of MrgprC11” value in assay [1] (30 μM, 10 min prior to 100 μM PAR2-AP) was “did not affect”. Besides, in assay [1] (concentrations up to 30 μM, 500 nM BAM8-22), the “inhibitory effect on the activation of MrgprC11 by BAM8-22” value was “minimal inhibitory effect”. The “effect on PAR2-AP-induced activation of PAR2” value in assay [2] is reported as “did not affect”. The “effect on DCA-induced activation of MrgprX4” value in assay [3] is “did not alter”. Besides, in assay [4], the half-maximal inhibitory concentration (IC50) came out at 2.9 µM.
